≈ marks a conversion by molar mass, not a printed value. Like-named read-outs stand apart in the source and are kept apart here. One block for each compound: values may come before it.
Assays:
[1] = test system: Staphyloccus aureus (MRSA) ATCC 33592; assay: Minimum Bactericidal Concentration (MBC); assay type: cell-based; conditions: Staphylococcus aureus, read-out: MBC end point
Text: Determinations of MBC followed the method described in “Report on the Working Party on Antibiotic Sensitivity Testing of the British Society of Antimicrobial Chemotherapy: A Guide to Sensitivity Testing.”

[2] = test system: Staphyloccus aureus (MRSA) ATCC 33592; assay: Minimum Inhibitory Concentration (MIC), dilution method; conditions: Staphylococcus aureus, 48 h, read-out: MIC end point
[3] = test system: platelet aggregation induced by ADP, epinephrine and collagen; conditions: cited from earlier work
[4] = cited from earlier work
[5] = cited from earlier work; remark: listed apart in the source
[6] = Pharmacokinetics of TAD vs IVAD (cefazolin, metronidazole): AUC and Cmax in TISF and serum
Protocol: A clinical pharmacologic investigation was conducted to compare the pharmacokinetic advantages of two modes of systemic antibiotic delivery, Tumescent antibiotic delivery (TAD), which involves the delivery of a relatively large volume of an antibiotic-containing solution to the subcutaneous compartment, and intravenous antibiotic delivery (IVAD), which results in direct delivery of antibiotics to the blood stream, for prophylaxis of SSI. […] Methods
With Institutional Review Board (IRB) approval, the absorption pharmacokinetics of tumescent antibiotic delivery (TAD) and intravenous antibiotic delivery (IVAD) were tested in human subjects and the antibiotic delivery modes were evaluated with respect to the area under the curve (AUC) of antibiotic concentration as a function of time and peak antibiotic concentration (Cmax) in serum and TISF. 4 female subjects participated in at least one study, one subject volunteered for 2 separate studies. 5 studies were conducted: 3 involved TAD to the abdomen, 1 involved TAD to the hips and outer thighs and 1 involved TAD to the breasts. […] Each of the 5 studies consisted of 2 to 3 pharmacokinetic procedures, for a total of 14 procedures. Any procedures conducted on an individual subject were separated by at least one week. In 13 procedures only IVAD or TAD, was used. In one procedure both IVAD and TAD were used concurrently, with IVAD started and finished within five minutes after completing TAD.
TAD was conducted as described herein. Following TAD, sequential 10 ml samples of tumescent adipose tissue were obtained using a hand-held syringe-liposuction technique. Sampling began immediately after completing the TAD infiltration (T0), and continuing until the patients reported significant discomfort. Liposuction aspirate samples were obtained at 0, 1, 2, 3, 4, 6, and 8 hours in all procedures; in 4 TAD procedures, sampling continued until 10 hours. Sequential serum samples for measurement of antibiotic concentration in serum after TAD ([Serum]TAD) were obtained simultaneously.
For IVAD, the antibiotic was delivered into an antecubital vein. […]

SMILES: Cc1nnc(SCC2=C(C(=O)O)N3C(=O)[C@@H](NC(=O)Cn4cnnn4)[C@H]3SC2)s1 [Cefazolin]
MBC ([1]; 24 h, Day 1): 250 µg/mL (≈ 550 µM)
MBC ([1]; 48 h, Day 2): 250 µg/mL (≈ 550 µM)
MIC [2]: 250 µg/mL (≈ 550 µM)

SMILES: CCN(CC)CC(=O)Nc1c(C)cccc1C [Lidocaine]
concentration that consistently inhibits in-vitro platelet aggregation ([3]; aggregation induced by ADP, epinephrine and collagen): ≥ 0.5 mg/mL
safe systemic concentration with no effect on platelet aggregation [3]: ≤ 6 micrograms/ml
duration of local anesthesia ([4]; 1% or 2% commercial concentrations of lidocaine with epinephrine): 2 to 3 h
persistence of profound surgical local anesthesia ([4]; tumescent local anesthesia (TLA)): 6 to 8 h
dosage limitation approved by the FDA ([5]; infiltration local anesthesia, commercial lidocaine (1%) with epinephrine (1:100,000)): 7 mg/kg
maximum safe mg/kg dosage (estimated) ([5]; tumescent lidocaine, TLA without liposuction, adults): 30 mg/kg

SMILES: Cc1ncc([N+](=O)[O-])n1CCO [Metronidazole]
AUC[Serum]IVAD ([6]; Study 5, 600 mg metronidazole IVAD): 127
period in which serum concentration of metronidazole exceeds 4 μg/ml ([6]; female, human, in vivo): 0 to 12 h

times greater antibiotic exposure in ISF by TAD than by IVAD (150×AUC[ISF]IVAD<AUC[TISF]TAD) ([6]; human, in vivo): 150
SMILES: CO[C@@]1(NC(=O)Cc2cccs2)C(=O)N2C(C(=O)O)=C(COC(N)=O)CS[C@@H]21 [cefoxitin]

From patent publication US8957060B2, “Tumescent antibiotic solution” (priority 2004, dated 2015)
